pIC50: −log10 of the molar value.
Target: human NaV 1.7 (Homo sapiens, UniProt Q15858)
Experiment: E-VIPR optical membrane potential assay with electrical stimulation
Format: cell-based
Details: sodium channel inhibition; read-out: Binned Activity Data (IC50)
How it was run: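 Membrane-potential read-out: background-subtracted 460 nm/580 nm ratio during a 9 s current-controlled stimulus, 400 Hz scan. Before stimulation, NaV1.7-HEK cells carried coumarin/oxonol dye and compound (final DMSO 0.625%) for 20–35 min at room temperature; tetracaine 125 μM served as positive control.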

Chain of human NaV 1.7 (Q15858 whole entry): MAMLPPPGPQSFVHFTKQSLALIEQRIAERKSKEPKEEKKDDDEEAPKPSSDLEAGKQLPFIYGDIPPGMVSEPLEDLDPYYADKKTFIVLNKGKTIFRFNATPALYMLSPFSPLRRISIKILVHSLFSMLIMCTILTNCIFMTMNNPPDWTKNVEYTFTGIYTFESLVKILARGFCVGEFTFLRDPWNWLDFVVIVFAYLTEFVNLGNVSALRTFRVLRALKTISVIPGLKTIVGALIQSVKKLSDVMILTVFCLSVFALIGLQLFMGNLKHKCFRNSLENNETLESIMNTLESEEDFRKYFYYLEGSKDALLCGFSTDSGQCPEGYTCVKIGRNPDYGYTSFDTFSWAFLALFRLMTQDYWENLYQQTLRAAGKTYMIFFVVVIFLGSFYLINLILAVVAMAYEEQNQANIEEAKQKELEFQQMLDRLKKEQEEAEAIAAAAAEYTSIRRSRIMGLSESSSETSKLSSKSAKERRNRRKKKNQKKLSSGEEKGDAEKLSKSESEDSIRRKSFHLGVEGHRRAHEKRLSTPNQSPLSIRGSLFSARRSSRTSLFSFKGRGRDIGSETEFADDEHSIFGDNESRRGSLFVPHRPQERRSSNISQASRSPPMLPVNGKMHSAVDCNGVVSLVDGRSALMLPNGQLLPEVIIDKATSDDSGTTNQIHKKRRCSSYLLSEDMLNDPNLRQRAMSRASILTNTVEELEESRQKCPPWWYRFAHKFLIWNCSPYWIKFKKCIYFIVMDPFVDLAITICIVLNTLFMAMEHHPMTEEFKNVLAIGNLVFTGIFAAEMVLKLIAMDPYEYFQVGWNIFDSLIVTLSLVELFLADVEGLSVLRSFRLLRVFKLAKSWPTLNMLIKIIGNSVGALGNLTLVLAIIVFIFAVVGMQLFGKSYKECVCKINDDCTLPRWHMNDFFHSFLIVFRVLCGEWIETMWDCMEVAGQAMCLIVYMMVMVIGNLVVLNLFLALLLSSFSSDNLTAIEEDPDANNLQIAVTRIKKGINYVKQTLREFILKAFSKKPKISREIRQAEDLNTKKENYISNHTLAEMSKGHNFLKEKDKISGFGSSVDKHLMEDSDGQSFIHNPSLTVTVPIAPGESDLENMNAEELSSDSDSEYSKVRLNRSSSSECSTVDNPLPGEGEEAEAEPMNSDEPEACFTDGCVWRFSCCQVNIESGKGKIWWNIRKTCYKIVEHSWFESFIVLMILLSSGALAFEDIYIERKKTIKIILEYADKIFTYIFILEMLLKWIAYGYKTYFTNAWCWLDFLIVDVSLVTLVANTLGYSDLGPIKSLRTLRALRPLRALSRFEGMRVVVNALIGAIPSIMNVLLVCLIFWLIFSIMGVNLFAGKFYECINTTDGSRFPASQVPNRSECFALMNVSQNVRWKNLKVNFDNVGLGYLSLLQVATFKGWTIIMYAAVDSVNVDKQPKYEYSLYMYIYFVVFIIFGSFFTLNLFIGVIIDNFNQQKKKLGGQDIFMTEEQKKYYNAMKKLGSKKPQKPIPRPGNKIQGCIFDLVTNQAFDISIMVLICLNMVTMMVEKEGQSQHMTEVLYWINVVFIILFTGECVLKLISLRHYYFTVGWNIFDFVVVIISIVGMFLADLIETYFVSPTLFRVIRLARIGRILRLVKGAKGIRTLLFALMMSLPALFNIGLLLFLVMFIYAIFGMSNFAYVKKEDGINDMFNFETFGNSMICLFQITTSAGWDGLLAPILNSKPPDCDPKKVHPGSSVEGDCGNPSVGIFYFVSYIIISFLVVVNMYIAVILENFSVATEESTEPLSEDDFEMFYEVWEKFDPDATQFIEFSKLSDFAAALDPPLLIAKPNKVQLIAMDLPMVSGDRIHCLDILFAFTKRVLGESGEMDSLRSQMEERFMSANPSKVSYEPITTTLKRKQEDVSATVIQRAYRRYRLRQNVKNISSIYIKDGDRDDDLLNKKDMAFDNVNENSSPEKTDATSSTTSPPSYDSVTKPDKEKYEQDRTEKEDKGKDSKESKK

SMILES	pIC50
N#Cc1ccc2n1-c1ccccc1OC21CCN(C(=O)c2ccccc2C(F)F)CC1 [Compound 401]	≥ 5.70
CC(C)(C)S(=O)(=O)c1ccc(C(=O)N2CCC3(CC2)Oc2ccccc2-n2c3ccc2S(C)(=O)=O)cc1 [Compound 404]	≥ 5.70
Cn1ccc(C(=O)N2CCC3(CC2)Oc2ccccc2-n2cccc23)cc1=O [Compound 405]	< 5.30
C[C@@](O)(CO)c1ccc(C(=O)N2CCC3(CC2)Oc2ccccc2-n2c(C#N)ccc23)cc1 [Compound 406]	≥ 5.70
COc1cc(C(=O)N2CCC3(CC2)Oc2cc(Cl)ccc2-n2cccc23)ccc1OC[C@H](C)OC [Compound 407]	≥ 5.70
Cc1cc(C(=O)N2CCC3(CC2)Oc2ccccc2-n2c(C#N)ccc23)ccc1OC(C)(C)C(=O)O [Compound 408]	5.30 to 5.70
O=C(c1ccccc1OC(F)F)N1CCC2(CC1)Oc1ccccc1-c1[nH]ncc12 [Compound 409]	< 5.30
CCn1ncc2c1-c1ccccc1OC21CCN(C(=O)c2ccc(OC(C)C)c(C)c2)CC1 [Compound 410]	≥ 5.70
CN(C)CCOc1ccc(C(=O)N2CCC3(CC2)Oc2cc(F)ccc2-n2cccc23)cc1C(F)(F)F [Compound 411]	< 5.30
Cc1cc(C(=O)N2CCC3(CC2)Oc2ccccc2-n2c(C(F)(F)F)ccc23)ccc1S(=O)(=O)N(C)C [Compound 413]	≥ 5.70
Cc1cc(C(=O)N2CCC3(CC2)Oc2cccnc2-c2c3cnn2C)ccc1OC(C)C [Compound 414]	≥ 5.70
Cc1cc(C(=O)N2CCC3(CC2)Oc2ccccc2-n2cccc23)ccc1OC(C)C [Compound 415]	≥ 5.70
Cc1cc(C(=O)N2CCC3(CC2)Oc2cccc(F)c2-n2c(C#N)ccc23)ccc1OC(C)C [Compound 416]	≥ 5.70
COc1cc(C(=O)N2CCC3(CC2)Oc2cc(Cl)ccc2-n2cccc23)ccc1C(C)(C)CO [Compound 417]	≥ 5.70
Cn1ncc2c1-c1ccccc1OC21CCN(C(=O)c2ccc(C3(O)COC3)cc2)CC1 [Compound 418]	5.30 to 5.70
CC(C)(C)c1ccc(C(=O)N2CCC3(CC2)Oc2ccccc2-n2cccc23)cc1C#N [Compound 419]	≥ 5.70
COCCOc1ccc(C(=O)N2CCC3(CC2)Oc2ccccc2-c2c3cnn2C)cc1OC [Compound 420]	≥ 5.70
Cn1ncc2c1-c1ccccc1OC21CCN(C(=O)c2ccc3c(c2)OC(C)(C)C3)CC1 [Compound 422]	5.30 to 5.70
CC(C)CS(=O)(=O)c1ccc(C(=O)N2CCC3(CC2)Oc2ccccc2-c2c3cnn2C)cc1 [Compound 423]	≥ 5.70
CC(C)(O)c1ccc(C(=O)N2CCC3(CC2)Oc2ccccc2-n2c(C(F)(F)F)ccc23)cc1F [Compound 424]	≥ 5.70
Cn1cc2c(n1)-c1ccccc1OC21CCN(C(=O)c2ccc(C(C)(C)O)c(CO)c2)CC1 [Compound 425]	< 5.30
Cc1cc(S(=O)(=O)C(C)C)ccc1C(=O)N1CCC2(CC1)Oc1ccccc1-n1c(C#N)ccc12 [Compound 426]	≥ 5.70
COc1cc(C(=O)N2CCC3(CC2)Oc2ccccc2-c2c3cnn2C)ccc1O[C@@H]1CCOC1 [Compound 427]	≥ 5.70
COc1cc(C(=O)N2CCC3(CC2)Oc2ccccc2-c2c3cnn2C)ccc1C(C)(C)C [Compound 429]	≥ 5.70
CC(C)Oc1ccccc1C(=O)N1CCC2(CC1)Oc1ccccc1-c1c2cnn1C [Compound 430]	≥ 5.70
CC(C)S(=O)(=O)c1ccc(C(=O)N2CCC3(CC2)Oc2cc(CO)ccc2-n2c(C#N)ccc23)cc1 [Compound 431]	≥ 5.70
COc1ccc(C(=O)N2CCC3(CC2)Oc2ccccc2-c2c3cnn2C)cc1C [Compound 433]	≥ 5.70
COc1cc(Cl)ccc1C(=O)N1CCC2(CC1)Oc1cc(Cl)ccc1-n1cccc12 [Compound 434]	≥ 5.70
COc1cc(C(=O)N2CCC3(CC2)Oc2ccc(F)cc2-c2nn(C)cc23)ccc1OC(C)C [Compound 435]	≥ 5.70
CC(C)CS(=O)(=O)c1ccc(C(=O)N2CCC3(CC2)Oc2ccccc2-n2c(C#N)ccc23)cc1 [Compound 436]	≥ 5.70

From patent US9365588B2, “Benzoxazines as modulators of ion channels” (Vertex Pharmaceuticals Incorporated, priority 2011, dated 2016)
